Experimental data reported in PubChem BioAssay AID489027 (Sanford-Burnham Center for Chemical Genomics, 2010).
Activity calls are given as the source filed them. No rule for the calls is given here.

Target: UPR counterscreen luciferase reporter, luminescence
Assay: activators in UPR counterscreen luciferase reporter, dose response, counter-screen for adaptive UPR activator project, cell-based, luminescence (AID 489027)

`Cc1ccc(-n2nc3cc(C)c(NC(=S)NC(=O)/C=C/c4ccco4)cc3n2)cc1` showed an EC50 of 11.6 µM.
For `Cc1ccc2c(c1)C(=O)C(=O)N2Cc1ccc(C(F)(F)F)cc1`, the EC50 was “inactive”.
For `CCCCN(CC)S(=O)(=O)c1ccc(C(=O)N=c2sc3cc(NC(C)=O)ccc3n2C)cc1`, the EC50 was 5.23 µM.
In the case of `Brc1cc(Br)c2ncnc(N3CCCCC3)c2c1`, the EC50 is reported as “inactive”.
In the case of `O=C(CSc1nc2ccc(Nc3nc(N4CCOCC4)nc(N4CCOCC4)n3)cc2s1)Nc1ccccc1F`, the EC50 is reported as > 80 µM (inactive).
Molecule `CCOC(=O)/C(=C\c1ccccc1)C(=O)c1cc(C(C)=O)c(Nc2ccccc2)s1` has an EC50 of 3.71 µM.
With `CCOC(=O)c1nnc(-c2ccc(C)cc2)nc1Sc1ccccc1Cl` the EC50 was 14.8 µM.
With `CSc1ccccc1NC(=O)c1cc(-c2cccnc2)nc2ccc(Br)cc12` the EC50 was > 80 µM (inactive).
In the case of `O=C(NCCCn1ccnc1)c1nn2c(C(F)(F)F)cc(-c3ccc(Br)cc3)nc2c1Cl`, the EC50 is reported as > 80 µM (inactive).
`COc1ccc2[nH]c3c(c2c1)CCN1C(=O)C(CC(=O)NC/C=C(\C)CCC=C(C)C)C[C@H](C(=O)N2CCOCC2)[C@@]31CCC1CCCC1` (stereo not given in full) was tested, and the EC50 was 18.5 µM.
`Brc1ccc(-c2ccc(/C=N/Nc3nncc(-c4ccccc4)n3)o2)cc1` gave an EC50 of 17.4 µM.
For `N#CCC(=O)N/N=C/c1cn(Cc2cccc3ccccc23)c2ccccc12`, the EC50 was > 80 µM (inactive).
For `Oc1ccc(Br)cc1/C=N/Nc1ccccn1`, the EC50 was > 80 µM (inactive).
With `CCOC(=O)c1c(NC(=O)/C=C/C(=O)O)sc(C)c1-c1ccc(C(C)(C)C)cc1` the EC50 was > 80 µM (inactive).
Work on `COc1ccc(-c2nnc(SCC(=O)Nc3sc4c(c3C#N)CCCC4)n2-c2ccccc2)cc1` yielded an EC50 of 16.1 µM.
`C/C(CCC12CC3CC(CC(C3)C1)C2)=N\NC(N)=S` was tested, and the EC50 was “inactive”.
In the case of `COc1cc(-c2ccc3oc(-c4ccsc4)cc3c2)cc(OC)c1OC`, the EC50 is reported as > 80 µM (inactive).
For `Cc1cccn2c(=O)c3cc(C(=O)NC4CCCCCC4)sc3nc12`, the EC50 was > 80 µM (inactive).
In the case of `CCOC(=O)c1cc(NC(=O)c2ccc(Cl)cc2)c(=O)n2c1oc1ccc(Cl)cc12`, the EC50 is reported as > 80 µM (inactive).
In the case of `C/C(=N/NC(=O)c1ccc(Cl)s1)c1ccc(NC(=O)COc2ccc(Cl)cc2)cc1`, the EC50 is reported as “inactive”.
For `CCOc1ccc(-n2nc3ccc(NC(=O)c4ccc5c(c4)OCCO5)cc3n2)cc1`, the EC50 was “inactive”.
Molecule `CCOC(=O)c1nnc(-c2ccc(C)cc2)nc1Oc1ccc(Cl)cc1Cl` has an EC50 of 13.1 µM.
In the case of `CCOc1ccc(S(=O)(=O)Nc2cccc(C(=O)NCC3(N4CCCCC4)CCCCC3)c2)cc1`, the EC50 is reported as “inactive”.
`COc1ccc2[nH]c3nc(SCc4nnc(-c5ccc(C)cc5)o4)nnc3c2c1` gave an EC50 of 19.7 µM.
Molecule `Cc1ccc2nc(NC(=O)c3ccc(-c4nc5ccccc5s4)s3)sc2c1` has an EC50 of 11 µM.
`Cc1c(Cl)cccc1Nc1nc(NCCO)c2ccccc2n1` gave an EC50 of 17 µM.
In the case of `CCOC(=O)c1c(NC(=O)Cc2cccs2)sc(C(=O)NC2CCCCC2)c1C`, the EC50 is reported as > 80 µM (inactive).
`O=C(Oc1ccccc1/C=C\C(=O)c1cc2ccccc2o1)c1cccc(F)c1` was tested, and the EC50 was 8.33 µM.
In the case of `C#CCn1c(=NC(=O)c2ccc(Cl)s2)sc2cccc(OC)c21`, the EC50 is reported as > 80 µM (inactive).
For `Cn1cc(/C=C(\C#N)C(=O)Nc2cccc([N+](=O)[O-])c2)c2ccccc21`, the EC50 was > 80 µM (inactive).
For `Cc1ccc(C(C)C)c(OCc2ccc(C(=O)N/N=C/c3ccc(O)c(O)c3)cc2)c1`, the EC50 was 4.95 µM.
For `Cc1cc(NC(=O)/C(C#N)=C/c2ccc(-c3ccc(SC(F)F)cc3)o2)n(-c2ccccc2)n1`, the EC50 was > 80 µM (inactive).
In the case of `Cc1ccc2nc(SCC(=O)Nc3cc(C(F)(F)F)ccc3N3CCOCC3)[nH]c2c1`, the EC50 is reported as “inactive”.
With `N#C/C(=C\Nc1ccc2cn[nH]c2c1)c1nc(-c2ccc(Cl)cc2)cs1` the EC50 was “inactive”.
In the case of `CCn1cc(C(=O)NC(=S)Nc2sc3c(c2C(=O)OC)CCCCCC3)cn1`, the EC50 is reported as “inactive”.
`COc1ccc(OC)c(NC(=O)c2oc3ccccc3c2NC(=O)C2CC2)c1` was tested, and the EC50 was > 80 µM (inactive).
For `N#Cc1c(-c2ccc3c(c2)OCO3)ccn2nc(-c3cccc(C(F)(F)F)c3)nc12`, the EC50 was “inactive”.
With `Cc1ccc(N2CCN(c3ccc(NCc4nc5ccccc5n4C)cc3)CC2)cc1` the EC50 was “inactive”.
In the case of `Oc1cccc2ccc(/C=C/c3ccc(Br)s3)nc12`, the EC50 is reported as “inactive”.
With `COc1cc2c(cc1NC(=S)NC(=O)/C=C/c1ccco1)oc1ccccc12` the EC50 was “inactive”.
With `Cc1nc(NC(=O)c2cc3c(C)nn(-c4ccccc4)c3s2)sc1C(=O)Nc1ccccc1` the EC50 was “inactive”.
In the case of `O=C1NC(=O)N(Cc2ccc(F)cc2)C(=O)/C1=C/c1cccs1`, the EC50 is reported as 13.8 µM.
With `COc1ccc(N=c2oc3ccc(OC)cc3cc2-c2nc3ccccc3[nH]2)cc1` the EC50 was 6.79 µM.
In the case of `Cc1ccc(C(=O)Nc2cc(S(=O)(=O)N3CCOCC3)ccc2N2CCCC2)cc1`, the EC50 is reported as “inactive”.
With `COc1cc(CNCCO)cc(Cl)c1OCc1ccc(Cl)cc1Cl` the EC50 was > 80 µM (inactive).
With `CCCNC(=O)/C(C#N)=C1\N=C(NC(=O)c2cccs2)c2ccccc21` the EC50 was > 80 µM (inactive).
In the case of `CCOc1ccc(/C=C/C(O)=C2/C(=O)NC3(C)CC2c2ccccc2O3)cc1OC` (stereo not given), the EC50 is reported as “inactive”.
`Cc1ccc(-n2nc3c(N4CCC(C(=O)NCCc5ccccc5C)CC4)nnc(C)c3c2C)cc1` was tested, and the EC50 was > 80 µM (inactive).
For `CN1/C(=C\C(=O)COC(=O)c2ccc(O)c(O)c2)C(C)(C)c2ccccc21`, the EC50 was 6.61 µM.
For `CC1=C(CC/C(C)=N/NC(N)=S)C(C)(C)CCC1`, the EC50 was 13.9 µM.
With `CSC1=NC(C)(C)C=C(/C=C/c2ccc(Cl)cc2)N1` the EC50 was 9.17 µM.
`Cc1cccc(NC(=O)CSc2nc(C)c(CC(=O)c3ccc(Br)cc3)c(C)c2C#N)c1C` was tested, and the EC50 was > 80 µM (inactive).
With `CC(C)CN=C(NS(=O)(=O)c1ccccc1)C(Cl)(Cl)Cl` the EC50 was 16.2 µM.
In the case of `Cc1ccc(Cl)cc1N1CCN(Cc2nc3c(c(=O)[nH]c(=O)n3C)n2CCc2ccccc2)CC1`, the EC50 is reported as 16.7 µM.
For `Cc1nc(NC(=O)CSc2ccc(-c3nc4ccccc4[nH]3)cn2)sc1C`, the EC50 was “inactive”.
With `COc1ccc(OC)c(-c2nnc3n2N=C(c2ccc(OC)c(OCC4CC4)c2)CS3)c1` the EC50 was > 80 µM (inactive).
In the case of `CCCNC(=O)c1ccc2c(=O)c(O)c(-c3ccc(OC)cc3)[nH]c2c1`, the EC50 is reported as > 80 µM (inactive).
In the case of `CCOc1cc(/C=C2/NC(=S)NC2=O)ccc1OCc1ccc([N+](=O)[O-])cc1`, the EC50 is reported as “inactive”.
With `CCc1sc2nc(SCC(=O)Nc3cc(C)on3)n(-c3cccc(OC)c3)c(=O)c2c1C` the EC50 was 15.6 µM.
Molecule `CC1(C)CC(=O)C(C=Nc2ccc(C(=O)c3ccccc3)cc2N=CC2=C(O)CC(C)(C)CC2=O)=C(O)C1` has an EC50 of 9.78 µM.
Work on `COc1ccc(-c2sc3ccccc3c2-c2ccc(OCCN(C)C)cc2)cc1` yielded an EC50 of 13.3 µM.
`COc1ccc(N2CCN(Cc3nc(N)nc(Nc4ccc(C)c(Cl)c4)n3)CC2)cc1` was tested, and the EC50 was > 80 µM (inactive).
`CC1CCC(C(C)C)C(OC(=O)Cn2c(-c3ccc(Cl)cc3)[n+](C)c3ccccc32)C1` (stereo not given) showed an EC50 of 13.4 µM.
In the case of `Cc1ccc(NC(=O)c2nc[nH]c2C(=O)NCCCNC(=O)c2[nH]cnc2C(=O)Nc2ccc(C)cc2)cc1`, the EC50 is reported as > 80 µM (inactive).
`CN(C)CC(CCC(CN(C)C)C(O)(c1ccccc1)c1ccccc1)C(O)(c1ccccc1)c1ccccc1` (stereo not given) gave an EC50 of 6.06 µM.
For `CCCCNc1c(-c2ccc(-c3ccc(C(C)=O)cc3)c(OC)c2)nc2cc(C)ccn12`, the EC50 was > 80 µM (inactive).
For `CC(C)CC(NC(=O)c1ccc(Cl)cc1)C(=O)OCC(=O)c1ccc2c(c1)NC(=O)CO2` (stereo not given), the EC50 was > 80 µM (inactive).
`Fc1ccc(Nc2nc(NCc3ccco3)c3ccccc3n2)cc1` was tested, and the EC50 was > 80 µM (inactive).
`CCN(CC)c1ccc(-c2nn3c(-c4ccccc4OC)nnc3s2)cc1` was tested, and the EC50 was “inactive”.
In the case of `Cc1[nH]c2ccccc2c1/C=C/c1nc2ccccc2c(=O)n1-c1ccc([N+](=O)[O-])cc1`, the EC50 is reported as > 80 µM (inactive).
In the case of `CC(=O)c1cccc(N=Cc2c(O)c3ccccc3oc2=O)c1`, the EC50 is reported as 7.69 µM.
With `C=CCN=C1S/C(=C/c2cccc([N+](=O)[O-])c2)C(=O)N1CC=C` the EC50 was “inactive”.
For `Cc1c(NC(=O)CSc2ccc(Cl)cc2)cccc1-c1nc2cc(Cl)ccc2o1`, the EC50 was > 80 µM (inactive).
`CN(C)c1ccc(/C=C/[N+](=O)[O-])cc1` gave an EC50 of 12.6 µM.
`CC1=C(/C=C/C(C)=C/C=C/C(C)=C/C(=O)Nc2ccc(O)cc2)C(C)(C)CCC1` gave an EC50 of 8.45 µM.
In the case of `CCOc1cc(/C=N/N=C(\N)c2nonc2N)cc(Br)c1OCc1cccc2ccccc12`, the EC50 is reported as > 80 µM (inactive).
With `CN(C)C(=O)CCc1ccc2c3c([nH]c2c1)[C@]1(CCc2ccccc2)[C@@H](C(=O)N2CCCCC2)C[C@H](CC(=O)NCCC2=CCCCC2)C(=O)N1CC3` the EC50 was “inactive”.
`O=C(N/N=C/C(Br)=C\c1ccccc1)c1n[nH]c2c1CCC2` was tested, and the EC50 was “inactive”.
In the case of `Oc1cc(-c2ccc(N3CCCCC3)nc2)cc2cccnc12`, the EC50 is reported as > 80 µM (inactive).
`Cc1ccc2c(c1)C(=O)C(=O)N2Cc1ccc(Br)cc1` was tested, and the EC50 was “inactive”.
With `Cc1ccc(Nc2nc(NCCO)c3ccccc3n2)cc1C` the EC50 was > 80 µM (inactive).
`OCCCn1c(C2CCCN2c2nc(-c3ccc(Cl)cc3)cs2)nc2cc(Cl)c(N3CCCCC3)cc21` (stereo not given) was tested, and the EC50 was “inactive”.
`Cc1cnc(NC(=O)c2cc3c(C)nn(Cc4ccccc4Cl)c3s2)s1` was tested, and the EC50 was > 80 µM (inactive).
For `COc1ccc(N2CCN(Cc3cc(=O)oc4cc(-c5ccccc5)c(O)cc34)CC2)cc1`, the EC50 was > 80 µM (inactive).
In the case of `COc1cc(OC)cc(C(=O)Nc2ccc3nc4n(c(=O)c3c2)CCCCC4)c1`, the EC50 is reported as > 80 µM (inactive).
With `Cc1ccccc1OCc1nc(-c2ccc(NC(=O)c3ccc4c(c3)OCO4)cc2)no1` the EC50 was “inactive”.
In the case of `COc1ccc(-c2nn(-c3ccccc3)cc2/C=C/C(=O)OCC(=O)Nc2cccc(C#N)c2)cc1`, the EC50 is reported as > 80 µM (inactive).
`Cc1cc(C)nc(SCc2ccc(C(=O)N/N=C/c3cccc(O)c3O)cc2)n1` showed an EC50 of 6.43 µM.
For `CCCCN(CC)S(=O)(=O)c1ccc(C(=O)N(CCCN(C)C)c2nc3cc(C)cc(C)c3s2)cc1`, the EC50 was 11.4 µM.
Molecule `O=C(Nc1nc(-c2ccc(F)c(F)c2)cs1)Nc1ccc(F)cc1F` has an EC50 of 13.4 µM.
In the case of `Cc1ccc(N=Cc2c(O)n(-c3ccc4c(c3)OCO4)c(=O)c3ccccc23)cc1`, the EC50 is reported as > 80 µM (inactive).
With `COc1cccc(-c2sc3ccccc3c2-c2ccc(OCCN(C)C)cc2)c1` the EC50 was 12.6 µM.
With `CCOC(=O)c1sc(-c2ccccc2)cc1NC(=O)Nc1ccc([N+](=O)[O-])cc1` the EC50 was 16.2 µM.
Molecule `CC1(C)C=Cc2c(c3c(c4c(=O)c(-c5ccc(O)cc5)coc24)OC(C)(C)CC3)O1` has an EC50 of 13.1 µM.
For `CC(C)=CCCC1(C)C=Cc2c(ccc3c2[nH]c2cc(O)c(C)cc23)O1` (stereo not given), the EC50 was 19.6 µM.
